Test results taken from patent publication US9982016B2, “NPR-B agonists” (priority 2009, dated 2018).
pEC50: −log10 of the molar value. Like-named read-outs stand apart in the source and are kept apart here. Numbered stars: 1 amine (or outer) side, 2 acyl side, 3 side chain; on linkers, the order of the positions; unused ones are H or OH. Square brackets hold non-standard residues; d marks the D form. Peptide text beside a SMILES is read from it. * marks the point of attachment. Pro(4R-NH2) = N[C@H]1CN[C@H](C(=O)O)C1; X2 = O=C([C@H]1CCCN([*:1])C1)[*:2]; NMeR = CN[C@@H](CCCNC(=N)N)C(=O)O; X1 = CCCCCCCCN1CCC[C@H](C(=O)*)C1; dDap(Me2) = CN(C)C[C@@H](N)C(=O)O; Hyp = O=C(O)[C@@H]1C[C@@H](O)CN1; NMeF = CN[C@@H](Cc1ccccc1)C(=O)O; NMeL = CN[C@@H](CC(C)C)C(=O)O; Octanoyl = CCCCCCCC(=O)*

Columns and labels:
[1] = tested on: human colon adenocarcinoma cells; conditions: 1 mM, within 24 h; cited from earlier work
[2] = tested on: human renal carcinoma cells; conditions: 100 μM; cited from earlier work
chondrocytes = conditions: low doses 10 to 100 pM, at the highest dose; cited from earlier work
NPR-B = biological target: T1, NPR-B (Homo sapiens, UniProt P20594); test: NPR-B induced production of cyclic GMP in human glaucoma trabecular meshwork cells (GTM-3); format: cell-based
T1 construct: endogenously NPR-B expressing GTM-3 cells; endogenous in cells; host or cells: GTM-3 (human glaucoma trabecular meshwork cells)
T1 sequence (P20594 23-1047): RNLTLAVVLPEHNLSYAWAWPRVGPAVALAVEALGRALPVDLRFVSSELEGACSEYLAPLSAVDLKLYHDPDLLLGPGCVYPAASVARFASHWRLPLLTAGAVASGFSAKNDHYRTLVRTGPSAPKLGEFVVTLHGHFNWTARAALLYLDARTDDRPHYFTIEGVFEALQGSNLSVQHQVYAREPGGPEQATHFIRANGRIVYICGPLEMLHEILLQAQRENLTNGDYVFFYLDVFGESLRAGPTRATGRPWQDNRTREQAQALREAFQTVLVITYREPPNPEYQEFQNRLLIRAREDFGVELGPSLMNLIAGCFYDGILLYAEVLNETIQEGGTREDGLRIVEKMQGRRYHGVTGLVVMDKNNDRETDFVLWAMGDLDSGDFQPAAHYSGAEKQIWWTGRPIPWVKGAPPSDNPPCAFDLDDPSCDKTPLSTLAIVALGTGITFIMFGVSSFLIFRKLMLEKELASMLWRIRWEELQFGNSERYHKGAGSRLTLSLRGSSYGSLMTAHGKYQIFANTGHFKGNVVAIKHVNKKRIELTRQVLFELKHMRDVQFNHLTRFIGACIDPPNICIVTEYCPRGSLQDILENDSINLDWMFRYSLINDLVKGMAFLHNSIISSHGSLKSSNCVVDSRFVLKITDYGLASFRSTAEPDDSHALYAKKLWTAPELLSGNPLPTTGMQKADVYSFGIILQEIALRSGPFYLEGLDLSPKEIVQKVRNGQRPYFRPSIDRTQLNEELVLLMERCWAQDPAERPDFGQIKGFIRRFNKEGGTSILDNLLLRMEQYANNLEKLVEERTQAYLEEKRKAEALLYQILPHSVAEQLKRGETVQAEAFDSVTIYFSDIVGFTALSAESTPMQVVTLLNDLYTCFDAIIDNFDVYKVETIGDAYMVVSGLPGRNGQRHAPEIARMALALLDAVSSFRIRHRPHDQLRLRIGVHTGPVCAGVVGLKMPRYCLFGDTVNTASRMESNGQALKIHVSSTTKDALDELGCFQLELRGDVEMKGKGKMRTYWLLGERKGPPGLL

[3] = NPR-B activation in GTM-3 cells, group set by EC50 and Emax (CNP = 100%), read-out: Activity (group)

SMILES | pEC50 (NPR-B; [3]) | further results
CC[C@H](C)[C@@H]1NC(=O)[C@H](CCCNC(=N)N)NC(=O)[C@H](CC(=O)O)NC(=O)[C@H](CCSC)NC(=O)[C@H](CCCNC(=N)N)NC(=O)CNC(=O)CNC(=O)[C@H](Cc2ccccc2)NC(=O)[C@@H](NC(=O)[C@H](CO)NC(=O)[C@H](CO)NC(=O)[C@H](CCCNC(=N)N)NC(=O)[C@H](CCCNC(=N)N)NC(=O)[C@H](CC(C)C)NC(=O)[C@@H](N)CO)CSSC[C@@H](C(=O)N[C@@H](CC(N)=O)C(=O)N[C@@H](CO)C(=O)N[C@@H](Cc2ccccc2)C(=O)N[C@@H](CCCNC(=N)N)C(=O)N[C@@H](Cc2ccc(O)cc2)C(=O)O)NC(=O)CNC(=O)[C@H](CC(C)C)NC(=O)CNC(=O)[C@H](CO)NC(=O)[C@H](CCC(N)=O)NC(=O)[C@H](C)NC(=O)CNC1=O [ANP, atrial natriuretic peptide] | – | decrease in cell number [1]: up to 97%
CC[C@H](C)[C@@H]1NC(=O)[C@H](CCCNC(=N)N)NC(=O)[C@H](CC(=O)O)NC(=O)[C@H](CC(C)C)NC(=O)[C@H](CCCCN)NC(=O)[C@H](CC(C)C)NC(=O)CNC(=O)[C@H](Cc2ccccc2)NC(=O)[C@@H](NC(=O)CNC(=O)[C@H](CCCCN)NC(=O)[C@H](CO)NC(=O)[C@H](CC(C)C)NC(=O)CN)CSSC[C@@H](C(=O)O)NC(=O)CNC(=O)[C@H](CC(C)C)NC(=O)CNC(=O)[C@H](CO)NC(=O)[C@H](CCSC)NC(=O)[C@H](CO)NC(=O)CNC1=O [CNP, C-type natriuretic peptide] | – | decrease in cell number [2]: 10%; increase in cellularity (chondrocyte proliferation) (chondrocytes): up to 43%
CCCCCCCCN1CCC[C@H](C(=O)N[C@@H](Cc2ccccc2)C(=O)N[C@H](CN(C)C)C(=O)N[C@@H](CC(C)C)C(=O)N2C[C@H](N)C[C@H]2C(=O)N(C)[C@@H](CC(C)C)C(=O)N[C@@H](CC(=O)O)C(=O)N[C@@H](CCCNC(=N)N)C(=O)N[C@H](C(N)=O)[C@@H](C)CC)C1 [JAL-1369, Oct-Sni-Phe-dap(Me2)-Leu-Tap-Nml-Asp-Arg-Ile-NH2] (X1-F[dDap(Me2)]L[Pro(4R-NH2)][NMeL]DRI-NH2) | > 6.00 | –
CCCCCCCCN1CCC[C@H](C(=O)N[C@@H](Cc2ccccc2)C(=O)N[C@H](CN(C)C)C(=O)N[C@@H](CC(C)C)C(=O)N2C[C@H](O)C[C@H]2C(=O)N(C)[C@@H](CC(C)C)C(=O)N[C@@H](CC(=O)O)C(=O)N[C@@H](CCCNC(=N)N)C(=O)N[C@H](C(N)=O)[C@@H](C)CC)C1 [JAL-1429, Oct-Sni-Phe-dap(Me2)-Leu-Hyp-Nml-Asp-Arg-Ile-NH2] (HELM PEPTIDE1{[CCCCCCCCN1CCC[C@H](C(=O)[*:2])C1].F.[CN(C)C[C@@H](N[*:1])C(=O)[*:2]].L.[Hyp].[meL].D.R.I.[am]}$$$$V2.0) | > 6.00 | –
CCCCCCCC(=O)N[C@H](C)C(=O)N[C@@H](Cc1ccccc1)C(=O)N[C@H](CC(C)C)C(=O)N[C@@H](CC(C)C)C(=O)N1C[C@H](O)C[C@H]1C(=O)N(C)[C@@H](CC(C)C)C(=O)N[C@@H](C(=O)N[C@@H](CCCNC(=N)N)C(=O)N[C@H](C(N)=O)[C@@H](C)CC)c1cccs1 [JAL-1558, Occ-ala-Phe-leu-Leu-Hyp-Nml-(BB727)-Arg-Ile-NH2] (HELM PEPTIDE1{[CCCCCCCC(=O)[*:2]].[dA].F.[dL].L.[Hyp].[meL].[O=C([C@H](N[*:1])c1cccs1)[*:2]].R.I.[am]}$$$$V2.0) | > 6.00 | –
CCCCCCCC(=O)N1CCC[C@H](C(=O)N[C@@H](Cc2ccccc2)C(=O)N[C@H](CN(C)C)C(=O)N[C@@H](CC(C)C)C(=O)N2C[C@H](O)C[C@H]2C(=O)N(C)[C@@H](CC(C)C)C(=O)N[C@@H](CC(=O)O)C(=O)N(C)[C@@H](CCCNC(=N)N)C(=O)N[C@H](C(N)=O)[C@@H](C)CC)C1 [JAL-1576, Occ-Sni-Phe-dap(Me2)-Leu-Hyp-Nml-Asp-Nmr-Ile-NH2] (Octanoyl-[X2]F[dDap(Me2)]L[Hyp][NMeL]D[NMeR]I-NH2) | > 6.00 | –
CCCCCCCC(=O)N1CCC[C@H](C(=O)N(C)[C@@H](Cc2ccccc2)C(=O)N[C@H](CN(C)C)C(=O)N[C@@H](CC(C)C)C(=O)N2C[C@H](O)C[C@H]2C(=O)N(C)[C@@H](CC(C)C)C(=O)N[C@@H](CC(=O)O)C(=O)N[C@@H](CCCNC(=N)N)C(=O)N[C@H](C(N)=O)[C@@H](C)CC)C1 [JAL-1579, Occ-Sni-Nmf-dap(Me2)-Leu-Hyp-Nml-Asp-Arg-Ile-NH2] (Octanoyl-[X2][NMeF][dDap(Me2)]L[Hyp][NMeL]DRI-NH2) | > 6.00 | –
CCCCCCCC(=O)N1CCC[C@H](C(=O)N[C@@H](Cc2ccccc2)C(=O)N[C@H](CN(C)C)C(=O)N[C@@H](CC(C)C)C(=O)N2C[C@H](O)C[C@H]2C(=O)N(C)[C@@H](CC(C)C)C(=O)N[C@@H](CC(=O)O)C(=O)N2CCC[C@H]2C(=O)N[C@H](C(N)=O)[C@@H](C)CC)C1 [JAL-1580, Occ-Sni-Phe-dap(Me2)-Leu-Hyp-Nml-Asp-Pro-Ile-NH2] (Octanoyl-[X2]F[dDap(Me2)]L[Hyp][NMeL]DPI-NH2) | > 6.00 | –
CC[C@H](C)[C@@H]1NC(=O)[C@H](CCCNC(=N)N)NC(=O)[C@H](CC(=O)O)NC(=O)[C@H](CCSC)NC(=O)[C@H](CCCNC(=N)N)NC(=O)CNC(=O)CNC(=O)[C@H](Cc2ccccc2)NC(=O)[C@H](Cc2c[nH]cn2)NC(=O)[C@@H](NC(=O)[C@@H](N)CCSC)CSSC[C@@H](C(=O)N[C@@H](Cc2ccc(O)cc2)C(=O)N[C@@H](CCCNC(=N)N)C(N)=O)NC(=O)[C@H](CO)NC1=O [mini-ANP, reference compound] (HELM PEPTIDE1{M.C.H.F.G.G.R.M.D.R.I.S.C.Y.R.[am]}$PEPTIDE1,PEPTIDE1,2:R3-13:R3$$$V2.0) | – | pEC50 (NPR-B; GTM-3 cells, 4-Parameter Logistic Equation, highest concentration 45 μM, FIG. 2, read-out: EC50, cyclic GMP production in GTM-3 cells): < 4.35
